# Source: patent publication US11524966B1 (Valo Early Discovery, Inc., priority 2017, dated 2022)
# Target: T1, USP28 (USP28-5(1-1077)-TEV-6*His; LifeSensors) (Homo sapiens, UniProt Q96RU2)
# T1 construct: construct USP28 (USP28-5(1-1077)-TEV-6*His; LifeSensors); TEV cleavage site (C); 6xHis (C); purchased LifeSensors
# T1 sequence (Q96RU2 1-1077): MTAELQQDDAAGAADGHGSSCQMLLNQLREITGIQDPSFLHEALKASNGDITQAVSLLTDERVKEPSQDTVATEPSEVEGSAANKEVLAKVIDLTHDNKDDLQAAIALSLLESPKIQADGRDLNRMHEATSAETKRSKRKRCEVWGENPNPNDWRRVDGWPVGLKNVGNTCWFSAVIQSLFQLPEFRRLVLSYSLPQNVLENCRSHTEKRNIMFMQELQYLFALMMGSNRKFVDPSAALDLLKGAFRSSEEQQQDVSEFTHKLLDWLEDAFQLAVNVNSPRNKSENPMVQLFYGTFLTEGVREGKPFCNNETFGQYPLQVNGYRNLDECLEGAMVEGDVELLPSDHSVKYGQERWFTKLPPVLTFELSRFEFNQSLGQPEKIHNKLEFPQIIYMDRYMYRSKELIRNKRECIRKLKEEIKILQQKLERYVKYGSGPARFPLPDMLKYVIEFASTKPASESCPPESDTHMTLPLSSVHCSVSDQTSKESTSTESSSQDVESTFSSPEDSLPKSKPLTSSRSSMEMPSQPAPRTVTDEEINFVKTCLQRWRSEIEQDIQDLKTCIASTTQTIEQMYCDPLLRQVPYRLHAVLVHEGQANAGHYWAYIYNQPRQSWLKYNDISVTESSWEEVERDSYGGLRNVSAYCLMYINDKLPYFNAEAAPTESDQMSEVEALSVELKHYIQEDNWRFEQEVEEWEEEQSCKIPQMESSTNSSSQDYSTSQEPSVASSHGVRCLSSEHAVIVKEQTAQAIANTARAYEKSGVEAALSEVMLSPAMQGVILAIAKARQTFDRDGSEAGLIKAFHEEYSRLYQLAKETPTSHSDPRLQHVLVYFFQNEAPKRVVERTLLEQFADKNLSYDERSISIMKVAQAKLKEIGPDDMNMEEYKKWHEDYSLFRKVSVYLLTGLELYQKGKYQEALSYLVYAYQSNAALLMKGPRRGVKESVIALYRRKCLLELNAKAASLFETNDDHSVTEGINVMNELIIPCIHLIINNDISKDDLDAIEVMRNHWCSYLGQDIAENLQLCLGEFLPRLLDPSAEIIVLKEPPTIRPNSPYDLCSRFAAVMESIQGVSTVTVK
# Experiment: Ubiquitin-Rhodamine 110 Assay for USP28 Activity, Example A-1(b)
# Assay type: biochemical
# Conditions: Ubiquitin-Rhodamine 110 assay, Example A-1(b)
# How it was run: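 Single-point screening used 10 μM compound with 90 min room-temperature incubation; follow-up dose-responses (25 μM top, 3-fold) used 75 pM USP28 1-1077 construct, 30 min compound preincubation, 25 nM Ub-Rh110, 20 min reaction, citric acid quench. Rh110 fluorescence normalised to no-enzyme and DMSO controls; IC50 from 4-parameter logistic fit.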
row,SMILES,USP28 A-1(b) IC50 range
1,"O=C(N[C@H]1COc2cc(N3CCNCC3)ccc2C1)c1ccc(NCc2cccc(Cl)c2)nc1 [Example 467, (R)-6-((3-chlorobenzyl)amino)-N-(7-(piperazin-1-yl)chroman-3-yl)nicotinamide]",++ (0.2-2 μM)
2,"Cc1ccc2c(N)c(C(=O)N[C@H]3COc4cc(N5CCC(O)CC5)ccc4C3)sc2n1 [Example 7-1, (R)-3-amino-N-(7-(4-hydroxypiperidin-1-yl)chroman-3-yl)-6-methylthieno[2,3-b]pyridine-2-carboxamide]",+++ (0.05-0.2 μM)
3,"CC(=O)Nc1cccc(CNc2ccc(C(=O)N[C@H]3COc4cc(N5CCNCC5)ccc4C3)cn2)c1 [Example 473, (R)-6-((3-acetamidobenzyl)amino)-N-(7-(piperazin-1-yl)chroman-3-yl)nicotinamide]",+ (>2 μM)
4,"Cc1ccc2c(N)c(C(=O)N[C@H]3COc4cc(N5C[C@H](N)[C@@H](F)C5)ccc4C3)sc2n1 [Example 3-7, 3-amino-N-((R)-7-((3S,4S)-3-amino-4-fluoropyrrolidin-1-yl)chroman-3-yl)-6-methylthieno[2,3-b]pyridine-2-carboxamide]",++ (0.2-2 μM)
5,"Cc1cnc2c(N)c(C(=O)N[C@H]3CCc4cc(N5CC(C(=O)O)C5)ccc4C3)sc2n1 [Example 6-4, (S)-1-(6-(7-amino-3-methylthieno[2,3-b]pyrazine-6-carboxamido)-5,6,7,8-tetrahydronaphthalen-2-yl)azetidine-3-carboxylic acid]",+ (>2 μM)
6,"Cc1ccc2c(N)c(C(=O)N[C@H]3COc4cc(N5CCN[C@H](C(F)(F)F)C5)ccc4C3)sc2n1 [Example 3-12, 3-amino-6-methyl-N-((R)-7-((S)-3-(trifluoromethyl)piperazin-1-yl)chroman-3-yl)thieno[2,3-b]pyridine-2-carboxamide]",++ (0.2-2 μM)
7,"O=C(N[C@H]1COc2cc(N3CCNCC3)ccc2C1)c1ccc(NCc2ccc3c(c2)OCCO3)nc1 [Example 471, (R)-6-(((2,3-dihydrobenzo[b][1,4]dioxin-6-yl)methyl)amino)-N-(7-(piperazin-1-yl)chroman-3-yl)nicotinamide]",+ (>2 μM)
8,"Cc1ccc2c(N)c(C(=O)N[C@@H]3CCc4cc(N5CC6CNCC(C5)O6)ccc4C3)sc2n1 [Example 451, N-((2R)-6-(9-oxa-3,7-diazabicyclo[3.3.1]nonan-3-yl)-1,2,3,4-tetrahydronaphthalen-2-yl)-3-amino-6-methylthieno[2,3-b]pyridine-2-carboxamide]",++ (0.2-2 μM)
9,"Cc1ccc2c(N)c(C(=O)N[C@H]3COc4cc(N5CCC(F)(F)CC5)ccc4C3)sc2n1 [Example 5-1, (R)-3-amino-N-(7-(4,4-difluoropiperidin-1-yl)chroman-3-yl)-6-methylthieno[2,3-b]pyridine-2-carboxamide]",++++ (0.001-0.05 μM)
10,"O=C(N[C@H]1COc2cc(N3CCNCC3)ccc2C1)c1cnn2ccccc12 [Example 460, (R)-N-(7-(piperazin-1-yl)chroman-3-yl)pyrazolo[1,5-a]pyridine-3-carboxamide]",+ (>2 μM)
11,"Cc1ccc2c(N)c(C(=O)N[C@H]3COc4cc(N5CCC(C(=O)O)CC5)ccc4C3)sc2n1 [Example 6-1, (R)-1-(3-(3-Amino-6-methylthieno[2,3-b]pyridine-2-carboxamido)chroman-7-yl)piperidine-4-carboxylic Acid]",++ (0.2-2 μM)
12,"Cc1cnc2c(N)c(C(=O)N[C@H]3CCc4cc(N5CCCNCC5)ccc4C3)sc2n1 [Example 455, (S)-N-(6-(1,4-diazepan-1-yl)-1,2,3,4-tetrahydronaphthalen-2-yl)-7-amino-3-methylthieno[2,3-b]pyrazine-6-carboxamide]",++ (0.2-2 μM)
13,"O=C(N[C@H]1COc2cc(N3CCNCC3)ccc2C1)c1ccc(NCc2cccc(C(F)(F)F)c2)nc1 [Example 469, (R)-N-(7-(piperazin-1-yl)chroman-3-yl)-6-((3-(trifluoromethyl)benzyl)amino)nicotinamide]",++ (0.2-2 μM)
14,"COC[C@@H]1CN(c2ccc3c(n2)OC[C@H](NC(=O)c2sc4nc(C)cc(C)c4c2N)C3)C[C@@H]1N [Example 348, 3-amino-N-[(3R)-7-[(3R,4R)-3-amino-4-(methoxymethyl)pyrrolidin-1-yl]-2H,3H,4H-pyrano[2,3-b]pyridin-3-yl]-4,6-dimethylthieno[2,3-b]pyridine-2-carboxamide]",+ (>2 μM)
15,"CC(=O)N1CCCc2cc(C(=O)N[C@H]3COc4cc(N5CCNCC5)ccc4C3)ccc21 [Example 459, (R)-1-acetyl-N-(7-(piperazin-1-yl)chroman-3-yl)-1,2,3,4-tetrahydroquinoline-6-carboxamide]",+ (>2 μM)
16,"Cc1cnc2c(N)c(C(=O)N[C@H]3CCc4cc(N5CC6COCC(C5)N6)ccc4C3)sc2n1 [Example 456, N-((2S)-6-(3-oxa-7,9-diazabicyclo[3.3.1]nonan-7-yl)-1,2,3,4-tetrahydronaphthalen-2-yl)-7-amino-3-methylthieno[2,3-b]pyrazine-6-carboxamide]",++ (0.2-2 μM)
17,"Cc1ccc2c(N)c(C(=O)N[C@H]3CCc4nc(N5C[C@@H](N)[C@H](C(F)(F)F)C5)ccc4C3)sc2n1 [Example 364, 3-amino-N-[(6S)-2-[(3S,4R)-3-amino-4-(trifluoromethyl)pyrrolidin-1-yl]-5,6,7,8-tetrahydroquinolin-6-yl]-6-methylthieno[2,3-b]pyridine-2-carboxamide]",+ (>2 μM)
18,"Cc1cnc2c(N)c(C(=O)N[C@H]3CCc4cc(N5CC6CNCC(C5)O6)ccc4C3)sc2n1 [Example 448, N-((2S)-6-(9-oxa-3,7-diazabicyclo[3.3.1]nonan-3-yl)-1,2,3,4-tetrahydronaphthalen-2-yl)-7-amino-3-methylthieno[2,3-b]pyrazine-6-carboxamide]",++ (0.2-2 μM)
19,"Cc1ccc2c(N)c(C(=O)N[C@H]3COc4cc(N5CC[C@]6(CCCNC6)C5)ccc4C3)sc2n1 [Example 3-13, N-((R)-7-((S)-2,7-diazaspiro[4.5]decan-2-yl)chroman-3-yl)-3-amino-6-methylthieno[2,3-b]pyridine-2-carboxamide]",+++ (0.05-0.2 μM)
20,"Cc1cc(C)n2ncc(C(=O)N[C@H]3COc4cc(N5CCNCC5)ccc4C3)c2n1 [Example 463, (R)-5,7-dimethyl-N-(7-(piperazin-1-yl)chroman-3-yl)pyrazolo[1,5-a]pyrimidine-3-carboxamide]",+ (>2 μM)
21,"Cc1ccc2c(N)c(C(=O)N[C@H]3COc4cc(N5CC[C@@H](C(=O)O)C5)ccc4C3)sc2n1 [Example 6-2, (R)-1-((R)-3-(3-amino-6-methylthieno[2,3-b]pyridine-2-carboxamido)chroman-7-yl)pyrrolidine-3-carboxylic acid]",++ (0.2-2 μM)
22,"Cc1ccc2c(N)c(C(=O)N[C@H]3COc4cc(N5CCS(=O)(=O)CC5)ccc4C3)sc2n1 [Example 5-2, (R)-3-amino-N-(7-(1,1-dioxidothiomorpholino)chroman-3-yl)-6-methylthieno[2,3-b]pyridine-2-carboxamide]",+++ (0.05-0.2 μM)
23,"Cc1cnc2c(N)c(C(=O)N[C@@H]3CCc4cc(N5CCCNCC5)ccc4C3)sc2n1 [Example 452, (R)-N-(6-(1,4-diazepan-1-yl)-1,2,3,4-tetrahydronaphthalen-2-yl)-7-amino-3-methylthieno[2,3-b]pyrazine-6-carboxamide]",+ (>2 μM)
24,"O=C(N[C@H]1COc2cc(N3CCNCC3)ccc2C1)c1cnn2cc(Cl)ccc12 [Example 462, (R)-6-chloro-N-(7-(piperazin-1-yl)chroman-3-yl)pyrazolo[1,5-a]pyridine-3-carboxamide]",+ (>2 μM)
